≈ marks a conversion by molar mass, not a printed value.
Key:
Format in all cases: cell-based
[1] = tested on: spores of ATCC 630 strain; assay: Inhibition of germination of C. difficile spores (MIC), strain ATCC 630; details: Clostridioides difficile, ATCC630, 1 h; strain 630; sodium taurocholate as germinant, BHIS medium, 37° C., OD580 for 60 min; read-out: MIC (minimum concentration that completely inhibits spore germination)
In short: (§1)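 Spores heat-activated for 30 min at 65° C and washed, then preincubated with compound (10 mM DMSO stock) in BHIS at 37° C. Germination was triggered with sodium taurocholate, and OD580 was read each minute for 60 min. Inhibition = 100% − germination rate, from final vs initial OD relative to germinant-only controls.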

[2] = tested on: spores of ATCC 43255 strain; assay: Inhibition of germination of C. difficile spores (MIC), strain ATCC 43255; details: Clostridioides difficile, ATCC43255, 1 h; strain 43255; sodium taurocholate as germinant, BHIS medium, 37° C., OD580 for 60 min; read-out: MIC (minimum concentration that completely inhibits spore germination)
In short: as §1

[3] = tested on: spores of ATCC BBA1870 strain; assay: Inhibition of germination of C. difficile spores (MIC), strain ATCC BBA1870; details: Clostridioides difficile, ATCCBBA1870STRAIN, 1 h; strain 1870; sodium taurocholate as germinant, BHIS medium, 37° C., OD580 for 60 min; read-out: MIC (minimum concentration that completely inhibits spore germination)
In short: as §1

In the case of `CC[C@@H](NC(=O)C[C@@H](C)[C@H]1CC[C@H]2[C@@H]3C(=O)C[C@@H]4CC(=O)CC[C@]4(C)[C@H]3CC[C@]12C)c1ccc(Cl)s1` [Compound I-70], the MIC [1] is reported as 0.25 µM (≈ 0.133 µg/mL), the MIC [2] is reported as 0.5 µM (≈ 0.266 µg/mL) and the MIC [3] is reported as 0.25 µM (≈ 0.133 µg/mL).

Work on `CC(C)C(NC(=O)C[C@@H](C)[C@H]1CC[C@H]2[C@@H]3C(=O)C[C@@H]4CC(=O)CC[C@]4(C)[C@H]3CC[C@]12C)c1ccc(Cl)s1` (stereo partly drawn) [Compound I-75] yielded an MIC [1] of 0.5 µM (≈ 0.273 µg/mL), an MIC [2] of 0.5 µM (≈ 0.273 µg/mL) and an MIC [3] of 0.5 µM (≈ 0.273 µg/mL).

Molecule `CC(C)[C@@H](NC(=O)C[C@@H](C)[C@H]1CC[C@H]2[C@@H]3[C@H](O)CC4=CC(=O)CC[C@]4(C)[C@H]3CC[C@]12C)c1ccc(Cl)s1` [Compound I-158-2] has an MIC [1] of 0.5 µM (≈ 0.273 µg/mL), an MIC [2] of 0.5 µM (≈ 0.273 µg/mL) and an MIC [3] of 0.5 µM (≈ 0.273 µg/mL).

In the case of `CC[C@@H](NC(=O)C[C@@H](C)[C@H]1CC[C@H]2[C@@H]3[C@@H](O)C[C@@H]4CC(=O)CC[C@]4(C)[C@H]3CC[C@]12C)c1ccc(Cl)s1` [Compound I-163], the MIC [1] is reported as 32 µM (≈ 17.1 µg/mL), the MIC [2] is reported as 32 µM (≈ 17.1 µg/mL) and the MIC [3] is reported as 32 µM (≈ 17.1 µg/mL).

`CC(C)[C@@H](NC(=O)C[C@@H](C)[C@H]1CC[C@H]2[C@@H]3[C@H](OC(=O)CCC(=O)O)C[C@@H]4CC(=O)CC[C@]4(C)[C@H]3CC[C@]12C)c1ccc(Cl)s1` [Compound I-181] showed an MIC [1] of 2 µM (≈ 1.3 µg/mL), an MIC [2] of 2 µM (≈ 1.3 µg/mL) and an MIC [3] of 2 µM (≈ 1.3 µg/mL).

`C[C@H](CC(=O)NCc1cccs1)[C@H]1CC[C@H]2[C@@H]3[C@H](O)[C@H](O)[C@@H]4C[C@H](O)CC[C@]4(C)[C@H]3CC[C@]12C` [Compound I-21] gave an MIC [1] of 4 µM (≈ 1.96 µg/mL), an MIC [2] of 8 µM (≈ 3.92 µg/mL) and an MIC [3] of 8 µM (≈ 3.92 µg/mL).

In the case of `CC(NC(=O)C[C@@H](C)[C@H]1CC[C@H]2[C@@H]3C(=O)C[C@@H]4CC(=O)CC[C@]4(C)[C@H]3CC[C@]12C)c1ccc(Br)s1` (stereo partly drawn) [Compound I-33], the MIC [1] is reported as 0.5 µM (≈ 0.281 µg/mL), the MIC [2] is reported as 1 µM (≈ 0.563 µg/mL) and the MIC [3] is reported as 0.5 µM (≈ 0.281 µg/mL).

Work on `CCC(NC(=O)C[C@@H](C)[C@H]1CC[C@H]2[C@@H]3[C@H](OS(=O)(=O)O)C[C@@H]4CC(=O)CC[C@]4(C)[C@H]3CC[C@]12C)c1ccc(Cl)s1` (stereo partly drawn) [Compound I-104] yielded an MIC [1] of 1 µM (≈ 0.614 µg/mL), an MIC [2] of 1 µM (≈ 0.614 µg/mL) and an MIC [3] of 1 µM (≈ 0.614 µg/mL).

`CC[C@@H](NC(=O)C[C@@H](C)[C@H]1CC[C@H]2[C@@H]3C(=O)CC4=CC(=O)CC[C@]4(C)[C@H]3CC[C@]12C)c1ccc(Br)s1` [Compound I-151] gave an MIC [1] of 0.5 µM (≈ 0.287 µg/mL), an MIC [2] of 1 µM (≈ 0.575 µg/mL) and an MIC [3] of 0.5 µM (≈ 0.287 µg/mL).

In the case of `CCC(NC(=O)C[C@@H](C)[C@H]1CC[C@H]2[C@@H]3C[C@H](O)[C@@H]4C[C@H](O)CC[C@]4(C)[C@H]3CC[C@]12C)c1ccc(Cl)s1` (stereo partly drawn) [Compound I-126], the MIC [1] is reported as 1 µM (≈ 0.536 µg/mL), the MIC [2] is reported as 2 µM (≈ 1.07 µg/mL) and the MIC [3] is reported as 2 µM (≈ 1.07 µg/mL).

Work on `C[C@H](NC(=O)C[C@@H](C)[C@H]1CC[C@H]2[C@@H]3C(=O)C[C@@H]4CC(=O)CC[C@]4(C)[C@H]3CC[C@]12C)c1cccs1` [Compound I-28] yielded an MIC [1] greater than 256 µM, an MIC [2] greater than 256 µM and an MIC [3] greater than 256 µM.

In the case of `C[C@H](CC(=O)NC(c1ccccc1)c1cccs1)[C@H]1CC[C@H]2[C@@H]3C(=O)C[C@@H]4CC(=O)CC[C@]4(C)[C@H]3CC[C@]12C` (stereo partly drawn) [Compound I-55], the MIC [1] is reported as 32 µM (≈ 17.5 µg/mL), the MIC [2] is reported as 32 µM (≈ 17.5 µg/mL) and the MIC [3] is reported as 64 µM (≈ 34.9 µg/mL).

Molecule `CC(C)[C@@H](NC(=O)C[C@@H](C)[C@H]1CC[C@H]2[C@@H]3[C@H](OC(=O)CCC(=O)O)C[C@@H]4CC(=O)CC[C@]4(C)[C@H]3CC[C@]12C)c1ccc(Br)s1` [Compound I-182] has an MIC [1] of 2 µM (≈ 1.39 µg/mL), an MIC [2] of 2 µM (≈ 1.39 µg/mL) and an MIC [3] of 2 µM (≈ 1.39 µg/mL).

Work on `CC(C)[C@@H](NC(=O)C[C@@H](C)[C@H]1CC[C@H]2[C@@H]3[C@H](O)C[C@@H]4CC(=O)CC[C@]4(C)[C@H]3CC[C@]12C)c1ccc(Cl)s1` [Compound I-97] yielded an MIC [1] of 0.125 µM (≈ 0.0685 µg/mL), an MIC [2] of 0.125 µM (≈ 0.0685 µg/mL) and an MIC [3] of 0.125 µM (≈ 0.0685 µg/mL).

`CC(C)[C@@H](NC(=O)C[C@@H](C)[C@H]1CC[C@H]2[C@@H]3[C@H](O)CC4=CC(=O)C=C[C@]4(C)[C@H]3CC[C@]12C)c1ccc(Cl)s1` [Compound I-162-2] showed an MIC [1] of 0.5 µM (≈ 0.272 µg/mL), an MIC [2] of 0.5 µM (≈ 0.272 µg/mL) and an MIC [3] of 0.5 µM (≈ 0.272 µg/mL).

`CC[C@H](NC(=O)C[C@@H](C)[C@H]1CC[C@H]2[C@@H]3[C@H](O)C[C@@H]4CC(=O)CC[C@]4(C)[C@H]3CC[C@]12C)c1ccc(Br)s1` [Compound I-90] gave an MIC [1] greater than 256 µM, an MIC [2] greater than 256 µM and an MIC [3] greater than 256 µM.
